Converted amounts (≈) assume the structure as drawn.
Tests used:
S. aureus ClpP (Sa-ClpP) = target: T1, S. aureus ClpP (Sa-ClpP) (Staphylococcus aureus, UniProt Q2G036); test: ClpP activation, casein-BODIPY digestion assay (first described method); format: biochemical; conditions: first described ClpP activation assay (**); 10 μM saClpP, 25 μg/ml BODIPY FL casein, 37° C.; read-out: ClpP Activation EC50
T1 construct: made in house; host or cells: E. coli BL21 (DE3)
Experimental: The compounds were assayed in a casein digestion assay in order to determine their effect on ClpP activation. Briefly, the assay was carried out using S. aureus ClpP (“Sa-ClpP”) overexpressed in E. coli BL21 (DE3) and purified in a two-step process. Purity of the protein was assessed through SDS PAGE analysis. EC50 evaluations were conducted in triplicate in a 20 μl assay format using a method adapted from Maurizi et al. (Methods Enzymol. (1994) 244:314-331.). Each well contained 10 μM saClpP, 25 μg/ml BODIPY FL casein (Invitrogen Corporation, San Diego, Calif.), and test compound in concentrations ranging between 0-100 μM in assay buffer (50 mM Tris pH 8, 200 mM KCl, and 1 mM TCEP). The reaction took place at 37° C. Fluorescence (excitation 485 nm; emission 528 nm) was measured in five minute intervals over a 45 min period using a BioTek HT fluorescence microplate reader (BioTek Instruments, Inc., Winooski, Vt.). Velocity of each reaction was calculated and data was fit to a dose response curve using GraphPad Prism® software (GraphPad Software, Inc., La Jolla, Calif.). EC50 is the effective concentration of compound which causes 50% activation of S. aureus ClpP in the foregoing BODIPY FL casein assay.

[1] = Cytotoxicity assay, CellTiter-Glo cell viability; format: cell-based; conditions: African green monkey; Vero cells, 72 hours; read-out: Cytotoxicity IC50
Method in brief: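 Vero cells seeded overnight at 37 °C in DMEM with 10% FBS, then exposed to serial dilutions of compound for 72 h. Viability read by CellTiter-Glo luminescence; IC50 from duplicates, given as the range of two independent experiments.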

E. faecails ATCC 33186 = test: Minimal inhibitory concentration, microbroth dilution; format: cell-based; conditions: Enterococcus faecalis, ATCC33186, read-out: Minimal Inhibitory Concentration E. faecails ATCC 33186
Method in brief: (§1)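 MICs were determined by CLSI broth microdilution, using two-fold compound dilutions from a final 200 μM and about 10^5 cfu/mL inoculum. Plates were incubated aerobically at 37 °C overnight. The MIC was read visually as the lowest concentration preventing growth.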

S. pneumoniae DAW27 = test: as above; format: cell-based; conditions: Streptococcus pneumoniae, DAW27, read-out: Minimal Inhibitory Concentration S. pneumoniae DAW27
Method in brief: as §1

T1 sequence (Q2G036 whole entry): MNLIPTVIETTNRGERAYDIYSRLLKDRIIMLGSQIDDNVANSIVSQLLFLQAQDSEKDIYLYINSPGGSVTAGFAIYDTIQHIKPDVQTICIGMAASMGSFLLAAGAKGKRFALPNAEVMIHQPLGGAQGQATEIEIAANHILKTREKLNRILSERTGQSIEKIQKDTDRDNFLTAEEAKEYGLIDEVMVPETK

Structure (SMILES)	EC50 (S. aureus ClpP (Sa-ClpP)) [µM]	IC50 at 72 h [1] [µM]	MIC (E. faecails ATCC 33186) [µM]	MIC (S. pneumoniae DAW27) [µM]
C[C@@H]1C[C@H]2C(=O)OC[C@H](NC(=O)[C@H](Cc3ccccc3)NC(=O)Nc3ccc(Cl)cc3)C(=O)N3CCC[C@H]3C(=O)N3CCCC[C@H]3C(=O)N[C@@H](C)C(=O)N2C1 [Compound 3, (S)-2-(3-(4-Chlorophenyl)Ureido)-N-((2R,6S,8aS,14aS,20S,23aS)-2,6-Dimethyl-5,8,14,19,23-Pentaoxooctadecahydro-1H,5H,14H,19H-Pyrido[2,1-I]Dipyrrolo[2,1-C:2′,1′-L][1]Oxa[4,7,10,13]Tetraazacyclohexadecin-20-Yl)-3-Phenylpropanamide]	3.3 ± 0.2	63 ± 5.8	0.2 (≈ 0.156 µg/mL)	0.2 (≈ 0.156 µg/mL)
C[C@@H]1C[C@H]2C(=O)OC[C@H](NC(=O)[C@H](Cc3ccccc3)NC(=O)Nc3ccc(N(C)C)cc3)C(=O)N3CCC[C@H]3C(=O)N3CCCC[C@H]3C(=O)N[C@@H](C)C(=O)N2C1 [Compound 5, (S)—N-((2R,6S,8aS,14aS,20S,23aS)-2,6-Dimethyl-5,8,14,19,23-Pentaoxooctadecahydro-1H,5H,14H,19H-Pyrido[2,1-1]Dipyrrolo[2,1-C:2′,1′-L][1]Oxa[4,7,10,13]Tetraazacyclohexadecin-20-Yl)-2-(3-(4-(Dimethylamino)Phenyl)Ureido)-3-Phenylpropanamide]	1.3 ± 0.2	91.3 ± 12.7	0.78 (≈ 0.614 µg/mL)	0.39 (≈ 0.307 µg/mL)
COc1ccc(NC(=O)N[C@@H](Cc2ccccc2)C(=O)N[C@H]2COC(=O)[C@@H]3C[C@@H](C)CN3C(=O)[C@H](C)NC(=O)[C@@H]3CCCCN3C(=O)[C@@H]3CCCN3C2=O)cc1 [Compound 6, (S)—N-((2R,6S,8aS,14aS,20S,23aS)-2,6-Dimethyl-5,8,14,19,23-Pentaoxooctadecahydro-1H,5H,14H,19H-Pyrido[2,1-1]Dipyrrolo[2,1-C:2′,1′-L][1]Oxa[4,7,10,13]Tetraazacyclohexadecin-20-Yl)-2-(3-(4-Methoxyphenyl)Ureido)-3-Phenylpropanamide]	2 ± 0.1	> 100	0.78 (≈ 0.604 µg/mL)	0.2 (≈ 0.155 µg/mL)
C[C@@H]1C[C@H]2C(=O)OC[C@H](NC(=O)[C@H](Cc3ccccc3)NC(=O)Nc3ccccc3Cl)C(=O)N3CCC[C@H]3C(=O)N3CCCC[C@H]3C(=O)N[C@@H](C)C(=O)N2C1 [Compound 7, (S)-2-(3-(2-Chlorophenyl)Ureido)-N-((2R,6S,8aS,14aS,20S,23aS)-2,6-Dimethyl-5,8,14,19,23-Pentaoxooctadecahydro-1H,5H,14H,19H-Pyrido[2,1-I]Dipyrrolo[2,1-C:2′,1′-L][1]Oxa[4,7,10,13]Tetraazacyclohexadecin-20-Yl)-3-Phenylpropanamide]	34.6 ± 6.8	> 100	3.13 (≈ 2.44 µg/mL)	0.78 (≈ 0.607 µg/mL)
C[C@@H]1C[C@H]2C(=O)OC[C@H](NC(=O)[C@H](Cc3ccccc3)NC(=O)Nc3cccc(Cl)c3)C(=O)N3CCC[C@H]3C(=O)N3CCCC[C@H]3C(=O)N[C@@H](C)C(=O)N2C1 [Compound 9, (S)-2-(3-(3-Chlorophenyl)Ureido)-N-((2R,6S,8aS,14aS,20S,23aS)-2,6-Dimethyl-5,8,14,19,23-Pentaoxooctadecahydro-1H,5H,14H,19H-Pyrido[2,1-I]Dipyrrolo[2,1-C:2′,1′-L][1]Oxa[4,7,10,13]Tetraazacyclohexadecin-20-Yl)-3-Phenylpropanamide]	1 ± 0.1	89 ± 5	1.56 (≈ 1.21 µg/mL)	0.78 (≈ 0.607 µg/mL)
Cc1ccc(NC(=O)N[C@@H](Cc2cc(F)cc(F)c2)C(=O)N[C@H]2COC(=O)[C@@H]3C[C@@H](C)CN3C(=O)[C@H](C)NC(=O)[C@@H]3CCCCN3C(=O)[C@@H]3CCCN3C2=O)cc1 [Compound 24, (S)-3-(3,5-Difluorophenyl)-N-((2R,6S,8aS,14aS,20S,23aS)-2,6-Dimethyl-5,8,14,19,23-Pentaoxooctadecahydro-1H,5H,14H,19H-Pyrido[2,1-I]Dipyrrolo[2,1-C:2′,1′-L][1]Oxa[4,7,10,13]Tetraazacyclohexadecin-20-Yl)-2-(3-(P-Tolyl)Ureido)Propanamide]	3.3 ± 0.2	93.8 ± 4.8		

Reference: US9879050B2, “Substituted urea depsipeptide analogs as activators of the CLPP endopeptidase” (priority 2013, dated 2018)
